The source of these data is US20250326753A1, “DUAL CXCR4-BTK INHIBITORS” (X4 Pharmaceuticals, Inc., priority 2022, published 2025).

What all share (assay type): biochemical
For assay [1], the target named is T1, JAK3 (Homo sapiens, UniProt P52333).
T1 construct: purchased Reaction Biology Europe GmbH
T1 sequence (P52333 1-1124): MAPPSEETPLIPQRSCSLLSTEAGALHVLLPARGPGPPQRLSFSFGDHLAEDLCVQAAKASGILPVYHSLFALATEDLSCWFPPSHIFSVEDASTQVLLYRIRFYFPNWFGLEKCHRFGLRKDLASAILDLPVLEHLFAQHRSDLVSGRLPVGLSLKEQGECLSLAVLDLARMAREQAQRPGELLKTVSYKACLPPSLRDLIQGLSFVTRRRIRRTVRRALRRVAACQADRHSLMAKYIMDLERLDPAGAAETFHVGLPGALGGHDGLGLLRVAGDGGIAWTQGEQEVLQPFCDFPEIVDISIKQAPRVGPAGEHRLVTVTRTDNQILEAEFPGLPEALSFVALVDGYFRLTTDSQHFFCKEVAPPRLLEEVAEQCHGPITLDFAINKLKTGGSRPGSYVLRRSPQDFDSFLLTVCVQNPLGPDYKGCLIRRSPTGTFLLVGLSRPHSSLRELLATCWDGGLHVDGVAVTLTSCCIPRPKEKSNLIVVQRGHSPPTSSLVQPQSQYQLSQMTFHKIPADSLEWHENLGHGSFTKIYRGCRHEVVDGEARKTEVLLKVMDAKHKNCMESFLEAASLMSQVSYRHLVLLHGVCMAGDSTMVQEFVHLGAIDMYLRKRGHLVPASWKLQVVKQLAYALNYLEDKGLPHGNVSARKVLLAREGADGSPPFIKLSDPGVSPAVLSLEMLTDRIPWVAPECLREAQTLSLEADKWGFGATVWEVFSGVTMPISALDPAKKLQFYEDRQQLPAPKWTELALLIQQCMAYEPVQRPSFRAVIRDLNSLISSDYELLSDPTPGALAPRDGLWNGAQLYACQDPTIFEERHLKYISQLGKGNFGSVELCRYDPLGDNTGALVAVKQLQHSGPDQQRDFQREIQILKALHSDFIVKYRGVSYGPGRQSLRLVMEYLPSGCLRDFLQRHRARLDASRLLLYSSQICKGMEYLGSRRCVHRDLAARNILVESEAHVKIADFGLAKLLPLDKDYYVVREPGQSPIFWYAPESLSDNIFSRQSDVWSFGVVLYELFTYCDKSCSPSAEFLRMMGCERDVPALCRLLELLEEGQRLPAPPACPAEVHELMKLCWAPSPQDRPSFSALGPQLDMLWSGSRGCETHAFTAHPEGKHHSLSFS
Description: PanQinase kinase panel: JAK3. The note with it: for inhibition at 1 µM: read-out: INHIBITORY EFFECT @ 1 uM: JAK3. On the procedure:
(§1) Screening procedures were performed in accordance with the company's on-line protocol [accessed on-line Mar.
(§2) For each kinase, the median value of the cpm of three wells was defined as “low control” (n=3). This value reflects unspecific binding of radioactivity to the plate in the absence of a protein kinase but in the presence of the substrate. Additionally, for each kinase the median value of the cpm of three other wells was taken as the “high control,” i.e. full activity in the absence of any inhibitor (n=3). The difference between high and low control of each enzyme was taken as 100% activity.
As part of the data evaluation the low control of each kinase was subtracted from the high control value as well as from their corresponding “compound values”.

In assay [2] the target is T2, ARAF YDYD (Homo sapiens, UniProt P10398, Y301D/Y302D).
T2 construct: purchased Reaction Biology Europe GmbH
T2 sequence (P10398 1-606 Y301D/Y302D): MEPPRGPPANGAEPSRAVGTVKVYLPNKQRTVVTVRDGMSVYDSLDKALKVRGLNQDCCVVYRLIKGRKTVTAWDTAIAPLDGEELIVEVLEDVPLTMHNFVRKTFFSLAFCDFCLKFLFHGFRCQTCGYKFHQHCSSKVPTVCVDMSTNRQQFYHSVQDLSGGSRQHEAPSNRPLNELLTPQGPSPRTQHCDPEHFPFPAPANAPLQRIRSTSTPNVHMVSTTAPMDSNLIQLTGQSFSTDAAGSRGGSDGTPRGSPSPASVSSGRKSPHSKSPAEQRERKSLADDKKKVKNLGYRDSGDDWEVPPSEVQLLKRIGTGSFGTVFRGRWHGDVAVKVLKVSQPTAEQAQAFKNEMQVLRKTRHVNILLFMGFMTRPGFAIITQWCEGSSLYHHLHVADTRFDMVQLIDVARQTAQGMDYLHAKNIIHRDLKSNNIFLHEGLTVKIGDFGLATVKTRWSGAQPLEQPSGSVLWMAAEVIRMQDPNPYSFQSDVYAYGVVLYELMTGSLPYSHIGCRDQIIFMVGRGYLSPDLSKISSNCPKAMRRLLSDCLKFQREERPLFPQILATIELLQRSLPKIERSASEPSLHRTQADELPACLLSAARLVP
As to the kind of experiment: PanQinase kinase panel: ARAF YDYD. As to conditions: read-out: INHIBITORY EFFECT @ 1 uM: ARAF YDYD. On the procedure: as §1, §2
(§3) As part of the data evaluation the low control of each kinase was subtracted from the high control value as well as from their corresponding “compound values”. The residual activity (in %) for each compound well was calculated by using the following formula: Res. Activity (%)=100×[(signal of compound−low control)/(high control−low control)].

Assay [3] concerns the target T3, FGFR3 (Homo sapiens, UniProt P22607).
T3 construct: purchased Reaction Biology Europe GmbH
Description: PanQinase kinase panel: FGFR3. The note with it: read-out: INHIBITORY EFFECT @ 1 uM: FGFR3. On the procedure:
as §1, §2, §3

Assay [4] concerns 340 wild-type protein kinases. Description: PanQinase wild-type kinase panel, selectivity score. The note with it: 1 μM; for Selectivity Score: share of kinases with residual activity <50%, 340 wild-type protein kinase assays. On the procedure:
as §1
The selectivity score for a particular compound at a particular concentration was calculated by using the following formula: Selectivity Score=(count of data points <50%)/(total number of data points).

T3 sequence (P22607 23-806): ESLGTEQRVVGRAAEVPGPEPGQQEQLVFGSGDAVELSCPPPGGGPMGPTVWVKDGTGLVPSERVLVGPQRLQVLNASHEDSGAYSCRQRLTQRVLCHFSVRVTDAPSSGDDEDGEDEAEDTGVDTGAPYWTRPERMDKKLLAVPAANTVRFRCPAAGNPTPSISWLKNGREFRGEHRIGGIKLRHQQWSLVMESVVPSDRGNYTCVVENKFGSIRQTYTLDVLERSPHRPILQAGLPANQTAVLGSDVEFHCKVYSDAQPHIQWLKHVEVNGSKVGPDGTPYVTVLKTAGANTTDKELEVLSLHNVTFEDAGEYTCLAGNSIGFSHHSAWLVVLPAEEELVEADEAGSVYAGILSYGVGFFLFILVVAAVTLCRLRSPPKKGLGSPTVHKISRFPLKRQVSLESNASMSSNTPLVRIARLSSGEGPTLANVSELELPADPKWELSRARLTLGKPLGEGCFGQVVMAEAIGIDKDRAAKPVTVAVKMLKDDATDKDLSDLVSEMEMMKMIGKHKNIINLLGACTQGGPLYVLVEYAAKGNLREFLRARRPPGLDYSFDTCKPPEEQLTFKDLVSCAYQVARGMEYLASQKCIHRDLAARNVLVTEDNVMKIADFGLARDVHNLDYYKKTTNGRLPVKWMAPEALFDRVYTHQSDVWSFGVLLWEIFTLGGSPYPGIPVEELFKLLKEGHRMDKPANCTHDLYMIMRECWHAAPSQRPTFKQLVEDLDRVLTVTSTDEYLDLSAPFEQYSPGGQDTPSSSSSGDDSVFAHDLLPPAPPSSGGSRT

Take `O=C(c1ccc(Oc2ccccc2)cc1Cl)c1c[nH]c2ncnc(N[C@@H]3CC[C@@H](CO)OC3)c12` [ARQ-531, (2-chloro-4-phenoxyphenyl) (4-(((3R,6S)-6-(hydroxymethyl)tetrahydro-2H-pyran-3-yl)amino)-7H-pyrrolo[2,3-d]pyrimidin-5-yl) methanone]: the inhibition at 1 µM is 50 to 69% in assay [1], 70 to 89% in assay [2] and 50 to 69% in assay [3].
As for `Cc1cccnc1[C@H]1CCC[C@@H](c2ncccc2C)N1CCN1CCN(C(=O)c2ccc(-c3cc4c(-c5cccc(NC(=O)c6ccccc6)c5C)ncnc4[nH]3)cc2)CC1` [Compound I-10, N-(3-(6-(4-(4-(2-((2R,6S)-2,6-bis(3-methylpyridin-2-yl)piperidin-1-yl)ethyl)piperazine-1-carbonyl)phenyl)-7H-pyrrolo[2,3-d]pyrimidin-4-yl)-2-methylphenyl)benzamide], the inhibition at 1 µM in assay [1], in assay [2] and in assay [3] was less than 50% throughout. In assay [4], the “Selectivity Score” value is 0.053. The kinase selectivity profile result in assay [4] (panel of approximately 336 wild-type kinases, in words) is “surprisingly high selectivity for BTK inhibition”.
For `Cc1cc(-c2ccnc(Nc3cnn(CCN4[C@@H](c5ncccc5C)CCC[C@H]4c4ncccc4C)c3)n2)ccc1CNC(=O)N1CC(OC(C)C)C1` [Compound I-11], the “Selectivity Score” value in assay [4] is listed as 0.032.
For `Cc1cccnc1[C@H]1CCC[C@@H](c2ncccc2C)N1CCCCNC(=O)[C@@H]1CC[C@@H](Nc2ncnc3[nH]cc(C(=O)c4ccc(Oc5ccccc5)cc4Cl)c23)CO1` [Compound I-16], the “Selectivity Score” value in assay [4] is 0.265.
Same read-out and setting: the value for `Cc1cccnc1[C@H]1CCC[C@@H](c2ncccc2C)N1CCCCNC(=O)OC[C@@H]1CC[C@@H](Nc2ncnc3[nH]cc(C(=O)c4ccc(Oc5ccccc5)cc4Cl)c23)CO1` [Compound I-18] was 0.221.
As for `COc1ccc(F)cc1C(=O)NCc1ccc(-c2nn([C@@H](C)C(F)(F)F)c(N)c2C(N)=O)cc1` [LOXO-305, pirtobrutinib], the inhibition at 1 µM in assay [1], in assay [2] and in assay [3] was less than 50% in each case.
Consider `C=CC(=O)N1CCC([C@@H]2CCNc3c(C(N)=O)c(-c4ccc(Oc5ccccc5)cc4)nn32)CC1` [Zanubrutinib, (7S)-2-(4-phenoxyphenyl)-7-(1-prop-2-enoylpiperidin-4-yl)-4,5,6,7-tetrahydropyrazolo[1,5-a]pyrimidine-3-carboxamide], for which the “INHIBITORY EFFECT @ 1 uM: JAK3” value in assay [1] (1 uM) was “+ (Below 50% Inhibition at 1 uM)”. The inhibition at 1 µM in assay [2] and in assay [3] was less than 50% in each case.
